Measured values reported in ChEMBL document CHEMBL4261644, “Novel Symmetrical Benzazolyl Derivatives Endowed with Potent Anti-Heparanase Activity” (J Med Chem, 2018).
Activity calls are given as the source filed them. The rule behind the calls is not given here.

How the values were obtained:
HT-1080 [1] = assay: Antiproliferative activity against human HT1080 cells after 72 hrs by SRB assay; type: cell-based; details: ht-1080
Heparanase = target: T1, Heparanase (Homo sapiens, UniProt Q9Y251); assay: Inhibition of recombinant HPSE (unknown origin) using fondaparinux as substrate incubated for 3 hrs in absence of light by WST1 assay
T1 sequence (Q9Y251 whole entry): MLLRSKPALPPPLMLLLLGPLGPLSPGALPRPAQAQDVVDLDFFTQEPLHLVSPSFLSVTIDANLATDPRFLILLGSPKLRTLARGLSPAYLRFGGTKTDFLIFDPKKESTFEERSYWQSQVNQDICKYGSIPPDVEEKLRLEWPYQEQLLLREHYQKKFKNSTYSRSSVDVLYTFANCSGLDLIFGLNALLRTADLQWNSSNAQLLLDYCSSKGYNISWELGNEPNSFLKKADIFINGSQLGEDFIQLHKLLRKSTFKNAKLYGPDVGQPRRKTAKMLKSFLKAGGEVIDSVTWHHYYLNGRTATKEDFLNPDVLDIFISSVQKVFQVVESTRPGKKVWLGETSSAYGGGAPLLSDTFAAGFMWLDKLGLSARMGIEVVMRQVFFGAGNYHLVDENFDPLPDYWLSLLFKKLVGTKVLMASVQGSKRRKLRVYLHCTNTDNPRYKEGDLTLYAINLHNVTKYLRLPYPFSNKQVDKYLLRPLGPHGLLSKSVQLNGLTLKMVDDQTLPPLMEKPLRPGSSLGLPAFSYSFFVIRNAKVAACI

U-87 MG [2] = assay: Antiproliferative activity against human U87MG cells after 72 hrs by SRB assay; type: cell-based, U-87MG ATCC; details: u-87mg atcc
U2OS [3] = assay: Antiproliferative activity against human U2OS cells after 72 hrs by SRB assay; type: cell-based; details: u2os
U2OS [4] = assay: Anti-invasive activity in human U2OS cells assessed as reduction in invasive potential at 10 uM after 24 hrs by matrigel invasion assay relative to control; type: functional
[5] = target: T2, Heparanase (Homo sapiens) (UniProt Q9Y251); assay: Inhibition of HPSE in human HT1080 cells assessed as reduction in FGF1 mRNA expression after 24 hrs by qPCR analysis relative to control; type: cell-based
T2 sequence (whole entry): T1 sequence (Q9Y251 whole entry)

[6] = target: T2, Heparanase (Homo sapiens); assay: Inhibition of HPSE in human HT1080 cells assessed as reduction in VEGF mRNA expression after 24 hrs by qPCR analysis relative to control; type: cell-based
[7] = target: T2, Heparanase (Homo sapiens); assay: Inhibition of HPSE in human HT1080 cells assessed as reduction in MMP9 mRNA expression after 24 hrs by qPCR analysis relative to control; type: cell-based
[8] = Antiproliferative activity against HPSE-expressing human CME1 cells after 72 hrs by SRB assay; type: functional
Homo sapiens [9] = organism: Homo sapiens; assay: Anti-invasive activity in human CME1 cells assessed as reduction in invasive potential at […] uM after 72 hrs by matrigel invasion assay; type: functional, cell-based
HT-1080 [10] = assay: Anti-invasive activity in human HT1080 cells assessed as reduction in invasive potential at 10 uM after 24 hrs by matrigel invasion assay relative to control; type: functional; details: HT-1080, 24 h
Homo sapiens [11] = organism: Homo sapiens; assay: Anti-invasive activity in human CME1 cells assessed as reduction in invasive potential after 24 hrs by matrigel invasion assay; type: functional, cell-based
[12] = target: T2, Heparanase (Homo sapiens); assay: Inhibition of HPSE in human HT1080 cells assessed as reduction in HPSE mRNA expression after 24 hrs by qPCR analysis relative to control; type: cell-based
Homo sapiens [13] = organism: Homo sapiens; assay: Anti-invasive activity in human CME1 cells assessed as reduction in invasive potential at […] uM after 24 hrs by matrigel invasion assay; type: functional, cell-based
[14] = target: T2, Heparanase (Homo sapiens); assay: Inhibition of HPSE in human HT1080 cells assessed as reduction in FGF2 mRNA expression after 24 hrs by qPCR analysis relative to control; type: cell-based
U-87 MG [15] = assay: Anti-invasive activity in human U87MG cells assessed as reduction in invasive potential at 10 uM after 24 hrs by matrigel invasion assay relative to control; type: functional, U-87MG ATCC
HT-1080 [16] = assay: Anti-invasive activity in human HT1080 cells assessed as reduction in invasive potential at […] after 24 hrs by matrigel invasion assay relative to control; type: functional, cell-based

Compound: O=C(Cc1ccc2oc(-c3ccc(NC(=O)Nc4ccc(-c5nc6cc(CC(=O)NC(Cc7ccccc7)C(=O)O)ccc6o5)cc4F)c(F)c3)nc2c1)NC(Cc1ccccc1)C(=O)O (stereo unspecified)
- IC50 (HT-1080 [1]): Not Active
- IC50 (Heparanase): 720 nM
- IC50 (U-87 MG [2]): Not Active
- IC50 (U2OS [3]): Not Active

Compound: O=C(O)Cc1cccc(NS(=O)(=O)c2ccc(NC(=O)Nc3ccc(S(=O)(=O)Nc4cccc(CC(=O)O)c4)cc3)cc2)c1
- IC50 (Heparanase): > 10000 nM

Compound: O=C(O)Cc1ccc(O)c(NC(=O)c2ccc(NC(=O)Nc3ccc(C(=O)Nc4cc(CC(=O)O)ccc4O)cc3)cc2)c1
- IC50 (Heparanase): 2730 nM

Compound: O=C(O)Cc1ccc2oc(-c3ccc(NC(=O)Nc4ccc(-c5nc6cc(CC(=O)O)ccc6o5)cc4F)c(F)c3)nc2c1
- inhibition at 10 µM (U2OS [4]): 50 to 90%
- inhibition [5]: Active
- inhibition [6]: Active
- IC50 (HT-1080 [1]): Not Active
- inhibition [7]: Active
- IC50 [8]: 9500 nM
- IC50 (Heparanase): 180 nM
- Activity (Homo sapiens [9]): Active
- IC50 (U-87 MG [2]): Not Active
- inhibition at 10 µM (HT-1080 [10]): < 50%
- Activity (Homo sapiens [11]): Dose-dependent effect
- IC50 (U2OS [3]): Not Active
- inhibition [12]: Active
- Activity (Homo sapiens [13]): inactive
- inhibition [14]: Active
- inhibition at 10 µM (U-87 MG [15]): 50 to 90%

Compound: O=C(O)CNC(=O)Cc1ccc2oc(-c3ccc(NC(=S)Nc4ccc(-c5nc6cc(CC(=O)NCC(=O)O)ccc6o5)cc4F)c(F)c3)nc2c1
- inhibition at 10 µM (U2OS [4]): < 50%
- inhibition [5]: < 40%
- inhibition (HT-1080 [16]): Active
- inhibition ([6]; concentration not given here): < 40%
- IC50 (HT-1080 [1]): Not Active
- inhibition [7]: < 40%
- IC50 (Heparanase): 80 nM
- IC50 (U-87 MG [2]): Not Active
- inhibition at 10 µM (HT-1080 [10]): 50 to 90%
- IC50 (U2OS [3]): Not Active
- inhibition ([12]; concentration not given here): < 40%
- inhibition [14]: < 40%
- inhibition at 10 µM (U-87 MG [15]): 50 to 90%

Compound: Cc1cc2nc(-c3ccc(NC(=O)Nc4ccc(-c5nc6cc(C)c(C)cc6o5)cc4)cc3)oc2cc1C
- IC50 (Heparanase): > 10000 nM

Compound: O=C(O)Cc1ccc2oc(-c3ccc(NC(=O)Nc4ccc(-c5nc6cc(CC(=O)O)ccc6o5)cc4)cc3)nc2c1
- IC50 (HT-1080 [1]): Not Active
- IC50 (Heparanase): 3200 nM
- IC50 (U-87 MG [2]): Not Active
- IC50 (U2OS [3]): Not Active

Compound: O=C(O)Cc1cccc(NC(=O)c2ccc(NC(=O)Nc3ccc(C(=O)Nc4cccc(CC(=O)O)c4)cc3)cc2)c1
- IC50 (Heparanase): 1760 nM

Compound: O=C(O)Cc1cccc(NC(=O)c2ccc(CC(=O)Cc3ccc(C(=O)Nc4cccc(CC(=O)O)c4)cc3)cc2)c1
- IC50 (Heparanase): > 10000 nM

Compound: CC(C)CC(NC(=O)Cc1ccc2oc(-c3ccc(NC(=O)Nc4ccc(-c5nc6cc(CC(=O)NC(CC(C)C)B(O)O)ccc6o5)cc4F)c(F)c3)nc2c1)B(O)O (stereo unspecified)
- IC50 (Heparanase): 4870 nM

Compound: O=C(O)Cc1ccc2oc(-c3cccc(NC(=O)Nc4cccc(-c5nc6cc(CC(=O)O)ccc6o5)c4)c3)nc2c1
- IC50 (Heparanase): > 10000 nM

Compound: O=C(Cc1ccc2[nH]c(-c3ccc(NC(=O)Nc4ccc(-c5nc6cc(CC(=O)NC(Cc7ccccc7)C(=O)O)ccc6[nH]5)cc4F)c(F)c3)nc2c1)NC(Cc1ccccc1)C(=O)O (stereo unspecified)
- IC50 (Heparanase): 820 nM

Compound: O=C(O)Cc1ccc2oc(-c3ccc(NC(=S)Nc4ccc(-c5nc6cc(CC(=O)O)ccc6o5)cc4F)c(F)c3)nc2c1
- IC50 (Heparanase): 1400 nM

Compound: O=C(Cc1ccc2[nH]c(-c3ccc(NC(=O)Nc4ccc(-c5nc6cc(CC(=O)NCB(O)O)ccc6[nH]5)cc4F)c(F)c3)nc2c1)NCB(O)O
- IC50 (Heparanase): > 10000 nM

Compound: O=C(O)Cc1cccc(NC(=O)c2ccc(CC(O)Cc3ccc(C(=O)Nc4cccc(CC(=O)O)c4)cc3)cc2)c1
- IC50 (Heparanase): > 10000 nM

Compound: CC(C)CCNC(=O)Cc1ccc2oc(-c3ccc(NC(=O)Nc4ccc(-c5nc6cc(CC(=O)NCCC(C)C)ccc6o5)cc4F)c(F)c3)nc2c1
- IC50 (Heparanase): > 10000 nM

Compound: O=C(Nc1ccc(C(=O)Nc2cccc(B(O)O)c2)cc1)Nc1ccc(C(=O)Nc2cccc(B(O)O)c2)cc1
- IC50 (Heparanase): > 10000 nM

Compound: O=C(O)Cc1cccc(NC(=O)c2ccc(NC(=S)Nc3ccc(C(=O)Nc4cccc(CC(=O)O)c4)cc3F)c(F)c2)c1
- IC50 (Heparanase): 2610 nM

Compound: O=C(O)Cc1ccc2[nH]c(-c3ccc(NC(=O)Nc4ccc(-c5nc6cc(CC(=O)O)ccc6[nH]5)cc4F)c(F)c3)nc2c1
- IC50 (Heparanase): 980 nM

Compound: O=C(O)Cc1ccc2oc(N3CCC(NC(=O)NC4CCN(c5nc6cc(CC(=O)O)ccc6o5)CC4)CC3)nc2c1
- IC50 (Heparanase): > 10000 nM

Compound: N=C(Nc1ccc(-c2nc3cc(CC(=O)O)ccc3o2)cc1)Nc1ccc(-c2nc3cc(CC(=O)O)ccc3o2)cc1
- IC50 (Heparanase): 6020 nM

Compound: O=C(O)CNC(=O)Cc1ccc2oc(-c3ccc(NC(=O)Nc4ccc(-c5nc6cc(CC(=O)NCC(=O)O)ccc6o5)cc4F)c(F)c3)nc2c1
- inhibition at 10 µM (U2OS [4]): < 50%
- inhibition [5]: < 40%
- inhibition ([6]; concentration not given here): < 40%
- IC50 (HT-1080 [1]): Not Active
- inhibition [7]: < 40%
- IC50 (Heparanase): 450 nM
- IC50 (U-87 MG [2]): Not Active
- inhibition at 10 µM (HT-1080 [10]): 50 to 90%
- IC50 (U2OS [3]): Not Active
- inhibition ([12]; concentration not given here): < 40%
- inhibition [14]: < 40%
- inhibition at 10 µM (U-87 MG [15]): 50 to 90%

Compound: O=C(Nc1ccc(C(=O)Nc2cccc(C(=O)O)c2)cc1)Nc1ccc(C(=O)Nc2cccc(C(=O)O)c2)cc1
- IC50 (Heparanase): 9170 nM

Compound: O=C(O)Cc1ccc2oc(-c3ccc(NC(=S)Nc4ccc(-c5nc6cc(CC(=O)O)ccc6o5)cc4)cc3)nc2c1
- IC50 (Heparanase): 1810 nM

Compound: O=C(O)CNC(=O)Cc1ccc2[nH]c(-c3ccc(NC(=O)Nc4ccc(-c5nc6cc(CC(=O)NCC(=O)O)ccc6[nH]5)cc4F)c(F)c3)nc2c1
- IC50 (Heparanase): > 10000 nM

Compound: CC(NC(=O)Cc1ccc2oc(-c3ccc(NC(=O)Nc4ccc(-c5nc6cc(CC(=O)NC(C)C(=O)O)ccc6o5)cc4F)c(F)c3)nc2c1)C(=O)O (stereo unspecified)
- inhibition at 10 µM (U2OS [4]): < 50%
- IC50 (HT-1080 [1]): Not Active
- IC50 (Heparanase): 370 nM
- IC50 (U-87 MG [2]): Not Active
- inhibition at 10 µM (HT-1080 [10]): < 50%
- IC50 (U2OS [3]): Not Active
- inhibition at 10 µM (U-87 MG [15]): 50 to 90%

Compound: O=C(Cc1ccc2oc(-c3ccc(NC(=O)Nc4ccc(-c5nc6cc(CC(=O)NCB(O)O)ccc6o5)cc4F)c(F)c3)nc2c1)NCB(O)O
- IC50 (Heparanase): > 10000 nM

Compound: Cc1cc2nc(-c3ccc(NC(=O)Nc4ccc(-c5nc6cc(C)c(C)cc6o5)cc4F)c(F)c3)oc2cc1C
- IC50 (Heparanase): > 10000 nM

Compound: Cc1cc2nc(N3CCC(NC(=O)NC4CCN(c5nc6cc(C)c(C)cc6o5)CC4)CC3)oc2cc1C
- IC50 (Heparanase): > 10000 nM

Compound: O=C(O)Cc1ccc(O)c(NC(=O)c2ccc(CC(O)Cc3ccc(C(=O)Nc4cc(CC(=O)O)ccc4O)cc3)cc2)c1
- IC50 (Heparanase): > 10000 nM

Compound: O=C(O)Cc1ccc2[nH]c(-c3ccc(NC(=S)Nc4ccc(-c5nc6cc(CC(=O)O)ccc6[nH]5)cc4F)c(F)c3)nc2c1
- IC50 (Heparanase): 990 nM
